Laboratory results as given in US20260109729A1, “RUTHENIUM COMPLEXES FOR INHIBITION OF GALECTINS, METHOD OF THEIR PREPARATION, AND USE THEREOF” (priority 2023, published 2026).
Like-named read-outs stand apart in the source and are kept apart here.

Columns and labels:
[1] = target: T1, human galectin-3-CRD (Homo sapiens, UniProt P17931); assay: Fluorescence anisotropy competitive inhibition assay, galectin 3; format: binding; conditions: average and standard deviation; for Ki: Ki calculated from IC50 with online calculator, read-out: Ki against human galectin 3-CRD; for IC50: protein 50 nM, probe 5 nM, at least three measurements, read-out: IC50 against human galectin-3-CRD under measured condition
T1 construct: human galectin-3-CRD; fused on or other part: N-terminal His6-GST tag, cleaved off by TEV protease before the fluorescence anisotropy test
T1 sequence (P17931 114-250 limits assumed): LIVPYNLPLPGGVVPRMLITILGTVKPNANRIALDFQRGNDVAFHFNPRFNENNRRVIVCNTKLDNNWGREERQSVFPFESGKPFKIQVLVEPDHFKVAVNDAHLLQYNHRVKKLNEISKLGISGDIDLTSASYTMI
Procedure: As a competitive fluorescent probe, the compound 3,3′-dideoxy-3-[4-(fluorescein-5-yl-carbonylamino-methyl)-1H-1,2,3-triazol-1-yl]-3′-[4-(3-fluorophenyl)-1H-1,2,3-triazol-1-yl]-1,1′-sulfanediyl-di-β-D-galactopyranoside was used in the measurements. Fluorescence anisotropy was measured using a Tecan Spark multimode microplate reader equipped with fluorescence polarization filters and black polystyrene round-bottomed microtiter plates (Corning®, 384 wells) in samples with a final volume of […]. The samples were incubated in the dark for 30 minutes before measurement.
The Kd values were obtained using nonlinear regression performed by GraphPad Prism software (version 10.0.2, GraphPad, USA) for direct ligand-protein interaction using the formula: A=A0+(Amax−A0)×([G]/(Kd+[G])), where A0 is the anisotropy of the probe in the absence of galectin, Amax is the maximum achieved anisotropy of the probe with increasing galectin concentration, [G] is the total galectin concentration in a measured sample, and A is the measured anisotropy of the measured sample. […] Raw anisotropy data from the reader were plotted against concentration using GraphPad Prism software (version 10.0.2, GraphPad, USA) and nonlinear fitting “[Inhibitor]vs. response—Variable slope (four parameters)” analysis was used to calculate the IC50 values (half-maximal inhibitory concentration) for each titration. The IC50 values from each titration experiment were then used to calculate the inhibition constant Ki using an online calculator (http://websites.umich.edu/-shaomengwanglab/software/calc_ki/index.html).

[2] = target: T2, human galectin-1 (Homo sapiens, UniProt P09382); assay: Fluorescence anisotropy competitive inhibition assay, galectin 1; format: binding; parameters: His6-GST (N, cleaved yes); made in house; host or cells: E. coli BL21 RILP; conditions: for Ki: Ki calculated from IC50 with online calculator, read-out: Ki against human galectin-1; for Ki / IC50: average and standard deviation; for affinity to galectin-1 compared with the fluorescent probe: exact Ki not determinable, given as possible range; for IC50: protein 500 nM, probe 100 nM, at least three measurements, read-out: IC50 against human galectin-1 under measured condition
T2 sequence (P09382 whole entry): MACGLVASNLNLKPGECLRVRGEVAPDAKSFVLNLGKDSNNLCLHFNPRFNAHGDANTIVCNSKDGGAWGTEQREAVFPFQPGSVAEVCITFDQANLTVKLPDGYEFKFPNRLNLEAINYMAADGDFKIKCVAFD
Procedure: Analytical Biochemistry 2004, 334 (1), 36-47, page 39, paragraph “Fluorescence Polarization”. As a competitive fluorescent probe, the compound 3,3′-dideoxy-3-[4-(fluorescein-5-yl-carbonylamino-methyl)-1H-1,2,3-triazol-1-yl]-3′-[4-(3-fluorophenyl)-1H-1,2,3-triazol-1-yl]-1,1′-sulfanediyl-di-β-D-galactopyranoside was used in the measurements. Fluorescence anisotropy was measured using a Tecan Spark multimode microplate reader equipped with fluorescence polarization filters and black polystyrene round-bottomed microtiter plates (Corning®, 384 wells) in samples with a final volume of […]. The samples were incubated in the dark for 30 minutes before measurement.
The Kd values were obtained using nonlinear regression performed by GraphPad Prism software (version 10.0.2, GraphPad, USA) for direct ligand-protein interaction using the formula: A=A0+(Amax−A0)×([G]/(Kd+[G])), where A0 is the anisotropy of the probe in the absence of galectin, Amax is the maximum achieved anisotropy of the probe with increasing galectin concentration, [G] is the total galectin concentration in a measured sample, and A is the measured anisotropy of the measured sample. […] Raw anisotropy data from the reader were plotted against concentration using GraphPad Prism software (version 10.0.2, GraphPad, USA) and nonlinear fitting “[Inhibitor]vs. response—Variable slope (four parameters)” analysis was used to calculate the IC50 values (half-maximal inhibitory concentration) for each titration. The IC50 values from each titration experiment were then used to calculate the inhibition constant Ki using an online calculator (http://websites.umich.edu/-shaomengwanglab/software/calc_ki/index.html). The used model is described in the following publication: Development and optimization of a binding assay for the XIAP BIR3 domain using fluorescence polarization, Analytical Biochemistry 2004, 332 (2), 261-273.

[3] = target: T2, human galectin-1; conditions: read-out: IC50 against human galectin-1; competitive ELISA, immobilized asialofetuin, His6-GST-Gal-1; average and standard deviation, at least 3 measurements
Procedure: (§1) An immobilized competitive ligand, asialofetuin (ASF), a glycoprotein terminated with LacNAc residues interacting with galectins, was used. Wells of microtiter plates (96-well BRAND plates-F-pureGrade, BRAND, Germany) were coated with ASF ([…] in 0.1M CO3^2−/HCO3^− buffer pH 9-9.8; 50 μL per well) and incubated overnight in a humid chamber at […]. Subsequently, wells were washed with 1×200 μL PBS (137 mM NaCl, 2.7 mM KCl, 8 mM Na2HPO4, and 2 mM KH2PO4, pH 7.4). PBS-Tween washes were performed 3×5 min following each subsequent step. The wells were blocked with 3% BSA in PBS (200 μL per well) and incubated for 1 hour at room temperature. Increasing concentrations of inhibitors in PBS buffer were mixed with His6-GST-Gal-3 or His6-GST-Gal-1 (target concentration 5 or 10 μM) and incubated in wells with ASF for 1 hour. […] The signal intensity was measured spectrophotometrically using the Multidetection reader Infinititte M1000 PRO (Tecan Group Ltd, CH) at 450 nm and corresponds to the amount of bound galectin. The respective inhibitory constant (IC50) was calculated from nonlinear regression (dose-response inhibition slope) of sigmoidal curves using GraphPad Prism software (version 10.0.2, GraphPad, USA).

[4] = target: T3, human galectin-3 (Homo sapiens, UniProt P17931); assay: Competitive ELISA with immobilized asialofetuin, galectin 3; format: binding; conditions: His6-GST-Gal-3, average and standard deviation, at least 3 measurements, read-out: IC50 against human galectin-3
T3 construct: made in house; host or cells: E. coli BL21 RILP
T3 sequence (P17931 whole entry): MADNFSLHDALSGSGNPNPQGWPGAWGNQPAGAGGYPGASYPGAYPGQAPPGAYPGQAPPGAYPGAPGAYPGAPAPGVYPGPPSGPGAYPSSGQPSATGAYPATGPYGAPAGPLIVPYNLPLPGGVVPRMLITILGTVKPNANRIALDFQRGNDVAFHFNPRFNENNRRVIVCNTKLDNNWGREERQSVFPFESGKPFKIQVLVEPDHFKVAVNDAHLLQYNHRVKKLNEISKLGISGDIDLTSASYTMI
Procedure: as §1

[5] = system: HEK-293; assay: MTT cytotoxicity assay, HEK-293; format: cell-based, human; conditions: embryonic kidney control cell line, 24-72 hours incubation
Procedure: (§2) This assay is based on the reduction of the yellow soluble 3-[4,5-dimethylthiazol-2-yl]-2,5-diphenyl tetrazolium bromide (MTT) to insoluble formazan (blue star-shaped crystals). The reaction takes place on the mitochondrial membrane of living cells. Subsequently, the formazan is dissolved by adding a strong detergent (dimethyl sulfoxide, DMSO), and the color is evaluated spectrophotometrically at a wavelength of 570-595 nm.
(§3) Human cell lines derived from ovarian carcinoma (A2780, SK-OV-3), breast carcinoma (MDA-MB-231, MCF-7), and non-tumor epithelial line MCF-10A were used for the cytotoxicity test. Additionally, a cell line derived from embryonic kidney cells HEK293 was used as a control. A2780 cells were cultured in RPMI 1640 medium (Sigma-Aldrich) containing 10% fetal bovine serum (Biochrom AG), 2 mM L-glutamine (Gibco), and 100 U/mL penicillin/streptomycin (Biosera). SK-OV-3 cells were cultured in McCoy's medium (Sigma-Aldrich) containing 10% fetal bovine serum (Biochrom AG) and 100 U/mL penicillin/streptomycin (Biosera). […] After dissolving the blue crystals, the absorbance was measured in the wells of the plate on an ELISA Reader (Multidetection reader Infinititte M1000 PRO (Tecan Group Ltd, CH)) at a wavelength of 570-595 nm. Evaluation of IC50 as the inflection point of the curve of measured absorbance values using the GraphPad Prism software (version 10.0.2, GraphPad, USA).

[6] = system: A2780; assay: MTT cytotoxicity assay, A2780; format: cell-based, human; conditions: ovarian carcinoma, 24-72 hours incubation
Procedure: as §2, §3

[7] = system: SK-OV-3; assay: MTT cytotoxicity assay, SK-OV-3; format: cell-based, human; conditions: ovarian carcinoma, 24-72 hours incubation
Procedure: as §2, §3

[8] = system: MDA-MB-231; assay: MTT cytotoxicity assay, MDA-MB-231; format: cell-based, human; conditions: breast carcinoma, 24-72 hours incubation
Procedure: as §2, §3

[9] = system: MCF-7; assay: MTT cytotoxicity assay, MCF-7; format: cell-based, human; conditions: breast carcinoma, 24-72 hours incubation
Procedure: as §2, §3

[10] = system: MCF-10A; assay: MTT cytotoxicity assay, MCF-10A; format: cell-based, human; conditions: non-tumor epithelial line, 24-72 hours incubation
Procedure: as §2, §3

Ruthenium Complex with Benzene and Cl Ligands and PF6^− Counterions [Compound 7]
Ki [1]: 3.54 ± 0.32 µM
IC50 [1]: 16.8 ± 1.5 µM
Ki [2]: < 5 nM
affinity to galectin-1 compared with the fluorescent probe [2]: significantly better affinity to galectin-1 than used fluorescent probe
IC50 [2]: 307 ± 33 nM

Ruthenium Complex with Hexamethylbenzene and Cl Ligands and PF6^− Counterions [Compound 8]
Ki [1]: 43.4 ± 13 µM
IC50 [1]: 205 ± 63 µM
Ki [2]: 114 ± 11 nM
IC50 [2]: 498 ± 26 nM

Ruthenium Complex with p-Cymene and Cl Ligands and BF4^− Counterions [Compound 5]
Ki [1]: 10.7 ± 1.9 µM
IC50 [1]: 50.7 ± 9 µM
Ki [2]: < 5 nM
affinity to galectin-1 compared with the fluorescent probe [2]: significantly better affinity to galectin-1 than used fluorescent probe
IC50 [2]: 187 ± 4 nM

Ruthenium Complex with p-Cymene and Cl Ligands and Cl^− Counterions [Compound 4]
Ki [1]: 21.2 ± 2.7 µM
IC50 [1]: 100 ± 12 µM
IC50 [3]: 26 ± 4 nM
IC50 [4]: 87.2 ± 4.4 µM
IC50 [5]: 158 ± 42 µM
IC50 [6]: > 200 µM
IC50 [7]: > 200 µM
IC50 [8]: > 200 µM
IC50 [9]: > 200 µM
IC50 [10]: > 200 µM
Ki [2]: 18 ± 11 nM
IC50 [2]: 328 ± 18 nM

Ruthenium Complex with p-Cymene and Cl Ligands and PF6^− Counterions [Compound 6]
Ki [1]: 15.2 ± 0.2 µM
IC50 [1]: 71.7 ± 0.84 µM
IC50 [4]: 104 ± 38 µM
IC50 [5]: 174 ± 28 µM
IC50 [7]: > 200 µM
IC50 [8]: 141 ± 8 µM
Ki [2]: < 5 nM
affinity to galectin-1 compared with the fluorescent probe [2]: significantly better affinity to galectin-1 than used fluorescent probe
IC50 [2]: 231 ± 17 nM

Ruthenium Complex with p-Cymene and I Ligands and I^− Counterions [Compound 9]
Ki [1]: 19 ± 3.3 µM
IC50 [1]: 89.8 ± 16 µM
Ki [2]: 37 ± 9 nM
IC50 [2]: 370 ± 16 nM

Ruthenium Complex with p-Cymene and I Ligands and PF6^− Counterions [Compound 10]
Ki [1]: 15.6 ± 1.8 µM
IC50 [1]: 73.5 ± 8.1 µM
Ki [2]: 23 nM
IC50 [2]: 347 ± 13 nM
